Experiment [1] deals with T1, Mitogen-activated protein kinase kinase kinase kinase 2 (Homo sapiens, UniProt Q12851).
T1 sequence (Q12851 whole entry): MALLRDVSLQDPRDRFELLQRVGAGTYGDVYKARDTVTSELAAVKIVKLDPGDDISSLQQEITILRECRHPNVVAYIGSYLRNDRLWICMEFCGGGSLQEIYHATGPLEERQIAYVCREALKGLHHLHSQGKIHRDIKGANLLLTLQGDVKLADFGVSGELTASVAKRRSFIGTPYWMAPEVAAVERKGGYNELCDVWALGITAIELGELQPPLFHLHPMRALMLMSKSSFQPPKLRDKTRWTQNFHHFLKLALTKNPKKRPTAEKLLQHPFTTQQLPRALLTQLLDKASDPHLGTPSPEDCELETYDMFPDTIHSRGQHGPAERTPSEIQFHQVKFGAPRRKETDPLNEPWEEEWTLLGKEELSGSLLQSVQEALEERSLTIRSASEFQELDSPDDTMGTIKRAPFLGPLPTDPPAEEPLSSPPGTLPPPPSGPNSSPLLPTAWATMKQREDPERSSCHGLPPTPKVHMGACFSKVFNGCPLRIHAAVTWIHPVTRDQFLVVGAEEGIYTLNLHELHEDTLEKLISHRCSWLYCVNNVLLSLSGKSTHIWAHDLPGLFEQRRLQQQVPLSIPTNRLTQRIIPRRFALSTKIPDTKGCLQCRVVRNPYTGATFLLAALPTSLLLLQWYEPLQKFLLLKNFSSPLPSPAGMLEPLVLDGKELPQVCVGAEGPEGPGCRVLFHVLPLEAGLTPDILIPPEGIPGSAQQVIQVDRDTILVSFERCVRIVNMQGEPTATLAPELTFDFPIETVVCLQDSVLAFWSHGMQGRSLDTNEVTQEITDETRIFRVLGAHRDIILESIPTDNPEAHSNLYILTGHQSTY

For experiment [2], the target named is T2, Succinate--CoA ligase [ADP-forming] subunit beta, mitochondrial (Homo sapiens, UniProt Q9P2R7).
T2 sequence (Q9P2R7 whole entry): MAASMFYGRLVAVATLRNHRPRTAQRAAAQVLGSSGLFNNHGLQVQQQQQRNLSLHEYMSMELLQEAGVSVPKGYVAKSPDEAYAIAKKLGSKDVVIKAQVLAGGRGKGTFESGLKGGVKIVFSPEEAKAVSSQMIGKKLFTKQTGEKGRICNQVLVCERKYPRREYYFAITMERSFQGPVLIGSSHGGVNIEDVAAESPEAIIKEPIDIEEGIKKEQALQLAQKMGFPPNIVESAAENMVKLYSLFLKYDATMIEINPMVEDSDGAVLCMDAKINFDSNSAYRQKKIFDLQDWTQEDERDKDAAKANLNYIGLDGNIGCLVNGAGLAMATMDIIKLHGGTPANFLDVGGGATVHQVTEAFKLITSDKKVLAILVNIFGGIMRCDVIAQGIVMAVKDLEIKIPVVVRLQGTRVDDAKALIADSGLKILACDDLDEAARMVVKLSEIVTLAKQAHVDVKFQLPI

Experiment [3] concerns the target T3, Glycogen phosphorylase, liver form (Homo sapiens, UniProt P06737).
T3 sequence (P06737 whole entry): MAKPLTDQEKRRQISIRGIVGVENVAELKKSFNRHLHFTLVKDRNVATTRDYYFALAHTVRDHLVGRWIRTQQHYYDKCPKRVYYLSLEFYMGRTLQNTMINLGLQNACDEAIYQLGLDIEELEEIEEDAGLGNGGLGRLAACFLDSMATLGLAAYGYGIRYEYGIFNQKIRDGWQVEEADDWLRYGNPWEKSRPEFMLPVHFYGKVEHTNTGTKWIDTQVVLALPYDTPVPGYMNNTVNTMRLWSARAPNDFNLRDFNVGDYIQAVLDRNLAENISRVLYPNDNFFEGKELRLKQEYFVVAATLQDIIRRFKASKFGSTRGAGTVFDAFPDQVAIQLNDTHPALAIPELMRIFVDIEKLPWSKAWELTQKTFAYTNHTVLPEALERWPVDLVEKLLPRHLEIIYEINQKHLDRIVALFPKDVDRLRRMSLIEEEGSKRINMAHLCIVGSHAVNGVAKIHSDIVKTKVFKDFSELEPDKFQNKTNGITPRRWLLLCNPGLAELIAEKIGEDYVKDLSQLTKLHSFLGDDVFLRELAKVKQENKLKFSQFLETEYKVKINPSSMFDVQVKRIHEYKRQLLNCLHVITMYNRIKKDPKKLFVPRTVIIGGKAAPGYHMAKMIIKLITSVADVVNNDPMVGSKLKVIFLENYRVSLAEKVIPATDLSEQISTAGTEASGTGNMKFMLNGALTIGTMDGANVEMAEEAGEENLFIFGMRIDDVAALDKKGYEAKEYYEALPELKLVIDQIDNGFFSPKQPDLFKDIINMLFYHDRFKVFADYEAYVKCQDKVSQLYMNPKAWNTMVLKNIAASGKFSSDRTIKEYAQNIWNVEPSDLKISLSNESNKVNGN
It counts as subcellular, K-562, COLO 205, SK-N-BE(2) and MV-4-11, Cell lysate. The conditions noted are these: read-out: Kd apparent.

Experiment [4] deals with Casein kinase I isoform alpha (Homo sapiens, UniProt P48729).
Casein kinase I isoform alpha, sequence (P48729 whole entry, canonical isoform): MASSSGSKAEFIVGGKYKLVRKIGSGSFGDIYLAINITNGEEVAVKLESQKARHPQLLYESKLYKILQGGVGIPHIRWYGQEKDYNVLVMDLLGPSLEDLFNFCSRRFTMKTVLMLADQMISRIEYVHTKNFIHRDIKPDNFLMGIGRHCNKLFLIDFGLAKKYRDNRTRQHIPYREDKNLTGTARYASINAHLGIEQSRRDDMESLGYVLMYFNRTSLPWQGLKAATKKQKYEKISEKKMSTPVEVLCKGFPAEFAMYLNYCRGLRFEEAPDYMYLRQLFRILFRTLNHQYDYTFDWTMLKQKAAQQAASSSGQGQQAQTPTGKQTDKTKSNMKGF

Kd data for 20 molecules are collected here from ChEMBL document CHEMBL3991601, “The target landscape of clinical kinase drugs” (Science, 2017).

Active and inactive are the calls of the source. Bounds are passed on as bounds.
Also: in the data inactive means no Kd found up to 30 µM.

For `Cc1nc2cc(-c3nn(C(C)C)c4ncnc(N)c34)ccc2o1`, the Kd in experiment [1] is 15.9 µM (active); in experiment [2], > 30 µM (inactive); in experiment [3] it was > 30 µM (inactive).
As to `Nc1ncnc2c1c(-c1cccc(OCc3ccccc3)c1)cn2[C@H]1C[C@@H](CN2CCC2)C1` [AEW-541], the Kd in experiment [1] was 4.58 µM (active); in experiment [2] it was > 30 µM (inactive); in experiment [3] it was > 30 µM (inactive).
In the case of `COc1cc(Nc2ncc3c(n2)-c2ccc(Cl)cc2C(c2c(F)cccc2OC)=NC3)ccc1C(=O)O` [ALISERTIB], the Kd in experiment [2] and in experiment [3] was > 30 µM (inactive) throughout.
For `Cc1csc(-c2nnc(Nc3ccc(Oc4ncccc4-c4ccnc(N)n4)cc3)c3ccccc23)c1` [AMG-900], the Kd in experiment [4] was > 30 µM (inactive); in experiment [1], 0.186 µM (active); in experiment [3] it was > 30 µM (inactive).
Consider `CNC(=O)c1ccccc1Sc1ccc2c(/C=C/c3ccccn3)n[nH]c2c1` [AXITINIB], for which the Kd in experiment [2] and in experiment [3] was > 30 µM (inactive) in each case.
Take `NC(=O)Nc1cc(-c2cccc(F)c2)sc1C(=O)N[C@H]1CCCNC1` [AZD-7762]: the Kd in experiment [4] is > 30 µM (inactive); in experiment [1], 0.05 µM (active); in experiment [3], > 30 µM (inactive).
On to `Cc1cc(C(=O)NOCCO)c(Nc2ccc(I)cc2F)n(C)c1=O` [AZD-8330], for which the Kd in experiment [4], in experiment [1] and in experiment [3] was > 30 µM (inactive) in each case.
As to `C#Cc1cccc(Nc2ncnc3cc(OC)c(OCCCCCCC(=O)NO)cc23)c1` [CUDC-101], the Kd in experiment [4], in experiment [1] and in experiment [3] was > 30 µM (inactive) in each case.
Take `CC(C)(C)c1nc(-c2cccc(NS(=O)(=O)c3c(F)cccc3F)c2F)c(-c2ccnc(N)n2)s1` [DABRAFENIB]: the Kd in experiment [4], in experiment [1] and in experiment [3] was > 30 µM (inactive) each time.
`Cn1cc(C2=C(c3cn(C4CCN(Cc5ccccn5)CC4)c4ccccc34)C(=O)NC2=O)c2ccccc21` [ENZASTAURIN]: the Kd in experiment [2] and in experiment [3] was > 30 µM (inactive) in each case.
Turning to `Cc1cccc(-c2nn3c(c2-c2ccnc4ccc(C(N)=O)cc24)CCC3)n1` [GALUNISERTIB], the Kd in experiment [1], in experiment [2] and in experiment [3] was > 30 µM (inactive) in each case.
Regarding `C[C@@H](Oc1cc(-n2cnc3ccc(CN4CCN(C)CC4)cc32)sc1C(N)=O)c1ccccc1C(F)(F)F` [GSK-461364], the Kd in experiment [2] and in experiment [3] was > 30 µM (inactive) throughout.
For the molecule `CCn1cc(-c2ccnc3[nH]c(-c4cccc(CN(C)C)c4)cc23)c(-c2ccc(NC(=O)N(C)C)cc2)n1` [GSK-1070916], the Kd in experiment [1] and in experiment [3] was > 30 µM (inactive) each time.
Take `Cc1[nH]c(/C=C2\C(=O)Nc3ccccc32)c(C)c1CCC(=O)O` [ORANTINIB]: the Kd in experiment [3] was > 30 µM (inactive).
On to `NC(=O)c1c(OCc2c(F)cc(Br)cc2F)nsc1NC(=O)NCCCCN1CCCC1` [OSI-632], for which the Kd in experiment [2] and in experiment [3] was > 30 µM (inactive) in each case.
On to `CC(=O)NCC(=O)N1[C@@H]2CC[C@H]1c1ccc(Nc3ncc(C(F)(F)F)c(NC4CCC4)n3)cc12` [PF-03814735], for which the Kd in experiment [3] was > 30 µM (inactive).
Consider `O=C(NOCCO)c1cc(CN2OCCCC2=O)c(F)c(F)c1Nc1ccc(I)cc1F` [RO-4987655], for which the Kd in experiment [2] and in experiment [3] was > 30 µM (inactive) throughout.
Consider `N#CC[C@H](C1CCCC1)n1cc(-c2ncnc3[nH]ccc23)cn1` [RUXOLITINIB], for which the Kd in experiment [2] and in experiment [3] was > 30 µM (inactive) in each case.
Consider `Cc1cc(Nc2ncnc3ccc(NC4=NC(C)(C)CO4)cc23)ccc1Oc1ccn2ncnc2c1` [TUCATINIB], for which the Kd in experiment [1], in experiment [2] and in experiment [3] was > 30 µM (inactive) throughout.
Regarding `C[C@@H](N)c1ccc(C(=O)Nc2ccnc3[nH]ccc23)cc1` [Y-39983], the Kd in experiment [1], in experiment [2] and in experiment [3] was > 30 µM (inactive) throughout.
